Results taken from patent US20030236213A1, “Mimics of acyl coenzyme-A comprising pantolactone and pantothenic acid derivatives, compositions thereof, and methods of cholesterol management and related uses” (priority 2002, published 2003).

Assays:
[1] = system: obese female Zucker rats; test: Oral daily treatment of obese female Zucker rats for fourteen days; type: in vivo, rat; details: 14 days; for Glucose, Percent Change from Pre-treatment: blood, 6-hour fast; for Glucose, Percent Change from Pre-treatment / BHA, Percent Change from Pre-treatment / HDL-C, Percent Change from Pre-treatment / Insulin, Percent Change from Pre-treatment / NEFA, Percent Change from Pre-treatment / Non HDL-C, Percent Change from Pre-treatment / TC, Percent Change from Pre-treatment / TG, Percent Change from Pre-treatment: oral daily; for % wt. gain / HDL-C/non HDL-C: oral gavage daily; for BHA, Percent Change from Pre-treatment / HDL-C, Percent Change from Pre-treatment / Insulin, Percent Change from Pre-treatment / NEFA, Percent Change from Pre-treatment / Non HDL-C, Percent Change from Pre-treatment / TC, Percent Change from Pre-treatment / TG, Percent Change from Pre-treatment: serum
Procedure: In a number of different experiments, compounds described in Table 1 were administered daily to 11-13 week old chow fed obese female Zucker rats for 14 days in the morning by oral gavage in 20% ethanol/80% polyethylene glycol-200 (dosing vehicle)(“EP”). The dosing vehicle was administered to control animals in parallel experiments.
Body weight was determined daily prior to dosing. Animals were allowed free access to rodent chow and water throughout the study. Blood glucose was determined after a 6-hour fast in the afternoon without anesthesia from a tail vein. Serum was also prepared from a blood sample subsequently obtained from the orbital venous plexus (with O2/CO2 anesthesia) prior to and after one week treatment and used lipid and insulin determinations. At two weeks, blood glucose was again determined after a 6-hour fast without anesthesia from a tail vein. Soon thereafter, animals were sacrificed by CO2 inhalation in the afternoon and cardiac blood serum was collected and assessed for various lipids and insulin.

[2] = system: primary rat hepatocytes; test: Synthesis of total lipids (14C-acetate labeling) in primary rat hepatocytes; type: cell-based; details: Hepatocyte, 14C-acetate labeling 4 hr at 37° C., 1-300 μM, read-out: IC50, total lipid synthesis
Procedure: A male Sprague-Dawley rate was anesthetized by administration of sodium pentobarbitol by intraperitoneal at 80 mg/kg. In situ perfusion of the liver was performed as follows. The abdomen of the animal was opened, the portal vein canulated, and the liver perfused with WOSH solution (149 mM NaCl, 9.2 mM Na HEPES, 1.7 mM Fructose, 0.5 mM EGTA, 0.029 mM Phenol red, 10 U/ml heparin, pH 7.5) at a flow rate of 30 ml/min for 6 minutes. To digest the liver, DSC solution (6.7 mM KCl, 143 mM NaCl, 9.2 mM Na HEPES, 5 mM CaCl2-2H2O, 1.7 mM Fructose, 0.029 mM Phenol red, 0.2% BSA, 100 U/ml collagenase Type I, 160 BAEE/ml trypsin inhibitor, pH 7.5) was perfused through the liver at a flow rate of 30 ml/min for 6 minutes at a temperature of 37° C. After digestion, cells were dispersed in a solution of DMEM-(DMEM containing 2 mM GlutMax-1, 0.2% BSA, 5% FBS, 12 nM insulin, 1.2 μM hydrocortisone) to stop the digestion process. The crude cell suspension was filtered through three layers of stainless steel mesh with pore sizes of 250, 106, and 75 μm respectively. Filtered cells were centrifuged at 50×g for two minutes and the supernatant discarded. The resulting cell pellet was resuspended in DMEM and centrifuged again. […]

| % wt. gain ([1]; 30 mg/kg/day) | % wt. gain ([1]; 100 mg/kg/day) | melting point | SMILES | Glucose, Percent Change from Pre-treatment ([1]; 30 mg/kg/day) | HDL-C/non HDL-C ([1]; 30 mg/kg/day) | BHA, Percent Change from Pre-treatment ([1]; 30 mg/kg/day) | HDL-C, Percent Change from Pre-treatment ([1]; 30 mg/kg/day) | Insulin, Percent Change from Pre-treatment ([1]; 30 mg/kg/day) | NEFA, Percent Change from Pre-treatment ([1]; 30 mg/kg/day) | Non HDL-C, Percent Change from Pre-treatment ([1]; 30 mg/kg/day) | TC, Percent Change from Pre-treatment ([1]; 30 mg/kg/day) | TG, Percent Change from Pre-treatment ([1]; 30 mg/kg/day) | Glucose, Percent Change from Pre-treatment ([1]; 100 mg/kg/day) | HDL-C/non HDL-C ([1]; 100 mg/kg/day) | BHA, Percent Change from Pre-treatment ([1]; 100 mg/kg/day) | HDL-C, Percent Change from Pre-treatment ([1]; 100 mg/kg/day) | Insulin, Percent Change from Pre-treatment ([1]; 100 mg/kg/day) | NEFA, Percent Change from Pre-treatment ([1]; 100 mg/kg/day) | Non HDL-C, Percent Change from Pre-treatment ([1]; 100 mg/kg/day) | TC, Percent Change from Pre-treatment ([1]; 100 mg/kg/day) | also measured |
| --- | --- | --- | --- | --- | --- | --- | --- | --- | --- | --- | --- | --- | --- | --- | --- | --- | --- | --- | --- | --- | --- |
| 10% | – | – | CC(C)(CO)C(O)C(=O)NCCNC(=O)C(O)C(C)(C)CO (racemic) [Compound V2, N-[2-(2,4-Dihydroxy-3,3-dimethylbutyrylamino)-ethyl]-2,4-dihydroxy-3,3-dimethylbutyramide] | −8% | 2 | 58% | −20% | −53% | −23% | 23% | −13% | 36% | – | – | – | – | – | – | – | – | – |
| – | 11% | 101 to 102.5 °C | CCCCCOc1cc(C)c(NC(=O)C(O)C(C)(C)CO)c(C)c1 (centres unmarked) [AA, N-(2,6-dimethyl-4-pentyloxy-phenyl)-2,4-dihydroxy-3,3-dimethyl-butyramide] | – | – | – | – | – | – | – | – | – | 10% | 3 | 51% | 87% | −10% | −30% | −17% | 41% | TG, Percent Change from Pre-treatment ([1]; 100 mg/kg/day): −38% |
| – | – | 120 to 121.5 °C | CC(C)(CO)C(O)C(=O)NCc1cccnc1 (centres unmarked) [AB, 2,4-Dihydroxy-3,3-dimethyl-N-pyridin-3ylmethyl-butyramide] | – | – | – | – | – | – | – | – | – | – | – | – | – | – | – | – | – | – |
| – | – | – | Cc1cc(OCCCCC(C)(C)CO)cc(C)c1NC(=O)C(O)C(C)(C)CO (centres unmarked) [Compound AC, 2,4-dihydroxy-N-[4-(6-hydroxy-5,5-dimethyl-hexyloxy)-2,6-dimethyl-phenyl]-3,3-dimethyl-butyramide] | – | – | – | – | – | – | – | – | – | – | – | – | – | – | – | – | – | IC50 [2]: 2100 nM |
| – | 11% | – | CC(C)(CO)[C@H](O)C(=O)NCCNC(=O)[C@H](O)C(C)(C)CO [Compound V1, (R,S)-N-[2-(2,4-Dihydroxy-3,3-dimethylbutyrylamino)-ethyl]-2,4-dihydroxy-3,3-dimethyl-butyramide] | – | – | – | – | – | – | – | – | – | −3% | 1 | 63% | 77% | −20% | 7% | 6% | 34% | TG, Percent Change from Pre-treatment ([1]; 100 mg/kg/day): 22% |
| 9% | – | 124.8 to 124.9 °C | CC(C)(CO)[C@@H](O)C(=O)NCCNC(=O)[C@H](O)C(C)(C)CO [Compound V3, (R,R)-N-[2-(2,4-Dihydroxy-3,3-dimethylbutyrylamino)-ethyl]-2,4-dihydroxy-3,3-dimethylbutyramide] | 3% | 2 | 69% | 7% | 11% | −16% | 16% | 9% | 14% | – | – | – | – | – | – | – | – | – |
| 12% | – | 124.8 to 124.9 °C | CC(C)(CO)[C@H](O)C(=O)NCCNC(=O)[C@@H](O)C(C)(C)CO [Compound V4] | 2% | 1 | 79% | 5% | 4% | −28% | 75% | 23% | 22% | – | – | – | – | – | – | – | – | – |
| – | 9% | – | CC(C)(CO)C(O)C(=O)NCCOCCNC(=O)C(O)C(C)(C)CO (centres unmarked) [U, N-{2-[2-(2,4-Dihydroxy-3,3-dimethylbutyrylamino)-ethoxy]-ethyl}-2,4-dihydroxy-3,3-dimethylbutyramide] | – | – | – | – | – | – | – | – | – | −3% | 2 | 254% | 14% | 6% | 13% | −2% | 8% | TG, Percent Change from Pre-treatment ([1]; 100 mg/kg/day): 1% |
